Like-named read-outs stand apart in the source and are kept apart here.
Legend:
[1] = test system: PbmCherryLuci sporozoites; experiment: Inhibition of liver to blood transition in C57BL/6 mice (FIG. 8); assay type: in vivo, Plasmodium berghei
Procedure: 40,000 PbmCherryLuci sporozoites (or the indicated number of sporozoites) were inoculated i.v. and compounds were administered by oral gavage at indicated time points during liver infection. Liver infection levels and egress of parasites from the liver were measured by bioluminescence signal from the parasites using an In Vivo Imaging System (IVIS, Perkin Elmer) at the peak of liver infection (52 hours post infection, hpi), during liver egress (55 hpi) as well as during the first round of blood infection (65 hpi). Initiation of blood infection was also measured by flow cytometry at 65 hpi using the mCherry reporter to determine the parasitemia of this first round of blood infection. These analyses allowed quantification of the efficacy of drug killing of parasites in the liver (52 hpi), preventing their egress from the liver (55 hpi) or preventing their successful infection of the blood (65 hpi). Mice were monitored by giemsa stained thin blood smears for the presence of parasites in the blood for 30 days post infection. If no blood infection was seen during the subsequent 30 days, mice were declared cured of malaria infection.
C57BL/6 mice were administered Example 1A or Example 75A as described in the general experimental procedure.

[2] = test system: parasite; experiment: Parasite LDH growth assay (Parasite Assay), antiparasite potency; assay type: cell-based; conditions: parasite LDH growth assay, ring stage parasites, 72 hours incubation at 37° C., read-out: EC50
Summary of the method: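 Ring-stage parasites at 0.7% parasitemia and 2% haematocrit, in RPMI-Hepes/bicarbonate with 5% heat-inactivated human serum and 0.5% albumax, were added to compound-containing medium. Cultures grew 72 h at 37 °C in gassed humidified boxes. Plates were then frozen overnight at −80 °C, thawed 4 h, and growth was measured by LDH assay.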

[3] = test system: PbmCherryLuci; experiment: Prime/boost immunisation of C57BL/6 mice with Example 75A, mosquito bite challenge (FIG. 9); assay type: in vivo, Plasmodium berghei; conditions: female C57BL/6, prime/boost, 2 x 500 mg/kg P.O. at 36 and 48 h; 10 mosquito bites at 12 weeks after prime
Procedure: To investigate if chemoprophylaxis with Example 75A would serve as a chemovaccination as does Example IA, female C57BL/6 mice were immunized using a prime/boost regimen. The first immunisation was with 40,000 PbmCherryLuci salivary gland sporozoites i.v. followed by two doses of Example 75A at 500 mg/kg P.O. (given at 36 and 48 hours post infection). The second immunisation (boost) was six weeks later, this time with 20,000 PbmCherryLuci sporozoites but with Example 75A treatment as for the prime immunisation. Six weeks after the boost immunisation (twelve weeks after the prime immunisation) the immunised mice were challenged with the bites of 10 PbmCherryLuci infected mosquitoes for 15 minutes. Giemsa stained thin blood smears were analysed until day 30 for the presence of parasites in the blood and mice were considered to be protected from infection if no blood parasites were observed within the 30 days post mosquito bite challenge.

[4] = test system: PMIX; experiment: Cleavage of PMIX substrates RAP1 and ASP in parasite extracts; assay type: cell-based, P. falciparum
Procedure: To confirm that Example 1A was a dual inhibitor of PMIX and PMX function, the ability of this compound to inhibit cleavage of the known PMIX substrate Rhoptry Associated Protein 1 (RAPI) in parasite extracts was tested (Pino et al., 2017). RAP1 is a merozoite rhoptry protein that is localized to the parasitophorous vacuole after invasion and processed by both PMIX and SUB1 (Pino et al., 2017). […] RAP1 was not released into the parasite supernatant because it was deposited in the parasitophorous vacuole during the invasion process (Baldi, D., Andrews, K., Waller, R., Roos, D., Howard, R., Crabb, B. and Cowman, A. (2000)). RAP1 controls rhoptry targeting of RAP2 in the malaria parasite Plasmodium falciparum. Embo Journal 19, 2435-2443.

[5] = biological target: PMX (Plasmodium falciparum, UniProt Q8IAS0); parameters: endogenous in cells; conditions: negative control, literature (Salmon et al. 2001); cited from earlier work
Sequence of PMX (Q8IAS0 222-573): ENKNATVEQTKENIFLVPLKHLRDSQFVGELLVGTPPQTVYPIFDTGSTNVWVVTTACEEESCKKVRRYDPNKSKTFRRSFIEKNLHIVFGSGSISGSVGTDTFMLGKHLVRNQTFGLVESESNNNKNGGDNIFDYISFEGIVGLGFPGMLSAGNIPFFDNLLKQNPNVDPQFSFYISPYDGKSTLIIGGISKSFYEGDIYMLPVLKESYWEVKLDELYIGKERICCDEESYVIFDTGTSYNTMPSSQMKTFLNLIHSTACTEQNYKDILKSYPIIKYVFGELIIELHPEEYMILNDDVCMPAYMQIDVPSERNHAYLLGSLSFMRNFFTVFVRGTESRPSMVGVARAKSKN

[6] = test system: PMIX; experiment: Autocatalytic processing of PMIX to p55; assay type: cell-based; conditions: P. falciparum parasite
From the text: The development of Example 1A as a PMIX/PMX dual inhibitor of the P. falciparum parasite has allowed for the analysis of the function of these aspartic acid proteases. To do this, PMIX was processed to a 55 kDa (p55) protein and this was not inhibited by E64.

In the case of `CCC1(CC)CC(=O)N([C@H]2c3cc(C(=O)N[C@@H]4c5ccccc5C[C@H]4O)ccc3O[C@@]2(C)COC)C(=N)N1` [Example 75A, (2R,3S)-3-(4,4-diethyl-2-imino-6-oxotetrahydropyrimidin-1(2H)-yl)-N-((1R,2R)-2-hydroxy-2,3-dihydro-1H-inden-1-yl)-2-(methoxymethyl)-2-methyl-2,3-dihydrobenzofuran-5-carboxamide], the mice protected ([1]; 300 mg/kg) is reported as 8 mice, the mice protected ([1]; 500 mg/kg) is reported as 10/11 and the “detection of parasites in the blood” value ([1]; lower doses (below 300 mg/kg)) is reported as “large delays in the detection of parasites in the blood”. For the same compound, the EC50 ([2]; 72 h) was 0.4 nM and the “sterile protection from reinfection” value [3] was 100%.
In the case of `CCC1(CC)CC(=O)N([C@@H]2CCCOc3ccc(C(=O)N[C@@H]4c5ccccc5OC(C)(C)[C@H]4O)cc32)C(=N)N1` [Example 248, (5R)-5-(4,4-diethyl-2-imino-6-oxo-hexahydropyrimidin-1-yl)-N-[(3S,4R)-3-hydroxy-2,2-dimethyl-chroman-4-yl]-2,3,4,5-tetrahydro-1-benzoxepine-7-carboxamide], the EC50 ([2]; 72 h) is reported as 0.8 nM.
Work on `CCC1(CC)CC(=O)N([C@@H]2CCOc3ccc(C(=O)NC4c5ccccc5CC4(O)C(F)(F)F)cc32)C(=N)N1` (stereo partly drawn) [Example 272C, (4R)-4-(4,4-diethyl-2-imino-6-oxo-hexahydropyrimidin-1-yl)-N-[2-hydroxy-2-(trifluoromethyl)indan-1-yl]chromane-6-carboxamide] yielded an EC50 [2] of 0.9 nM.
`CCC1(CC)CC(=O)N([C@H]2c3cc(C(=O)N[C@@H]4c5ccccc5OC(C)(C)[C@H]4O)ccc3CC[C@@H]2OC)C(=N)N1` [Example 276, (3S,4S)-4-(4,4-diethyl-2-imino-6-oxo-hexahydropyrimidin-1-yl)-N-[(3S,4R)-3-hydroxy-2,2-dimethyl-chroman-4-yl]-3-methoxy-tetralin-6-carboxamide] gave an EC50 ([2]; 72 h) of 0.6 nM.
With `CC[C@]1(C)CC(=O)N([C@H]2c3cc(C(=O)N[C@@H]4c5ccccc5OC(C)(C)[C@H]4O)ccc3OC[C@@H]2COC)C(=N)N1` [Example 277, (3S,4R)-4-[(4R)-4-ethyl-2-imino-4-methyl-6-oxo-hexahydropyrimidin-1-yl]-N-[(3S,4R)-3-hydroxy-2,2-dimethyl-chroman-4-yl]-3-(methoxymethyl)chromane-6-carboxamide] the EC50 ([2]; 72 h) was 0.4 nM.
Compound `CC[C@]1(C)CC(=O)N([C@H]2c3cc(C(=O)N[C@@H]4c5ccccc5OC(C)(C)[C@H]4O)ccc3OCC2(C)OC)C(=N)N1` (stereo partly drawn) [Example 284, 4-[(4R)-4-ethyl-2-imino-4-methyl-6-oxo-hexahydropyrimidin-1-yl]-N-[(3S,4R)-3-hydroxy-2,2-dimethyl-chroman-4-yl]-3-methoxy-3-methyl-chromane-6-carboxamide] has an EC50 ([2]; 72 h) of 8.5 nM.
`CCC1(CC)CC(=O)N([C@@H]2CCS(=O)(=O)c3ccc(C(=O)N[C@H]4CC(C)(C)Oc5ccccc54)cc32)C(=N)N1` [Example 289, (4R)-4-(4,4-diethyl-2-imino-6-oxo-hexahydropyrimidin-1-yl)-N-[(4S)-2,2-dimethylchroman-4-yl]-1,1-dioxo-3,4-dihydro-2H-thiochromene-6-carboxamide] gave an EC50 [2] of 0.6 nM.
Compound `CCC1(CC)CC(=O)N([C@H]2c3cc(C(=O)N[C@@H]4c5ccccc5C(F)(F)[C@H]4O)ccc3O[C@@]2(C)COC)C(=N)N1` [Example 290, (2R,3S)-3-(4,4-diethyl-2-imino-6-oxo-hexahydropyrimidin-1-yl)-N-[(1R,2S)-3,3-difluoro-2-hydroxy-indan-1-yl]-2-(methoxymethyl)-2-methyl-3H-benzofuran-5-carboxamide] has an EC50 ([2]; 72 h) of 0.3 nM.
Compound `CCC1(CC)CC(=O)N([C@H]2c3cc(C(=O)N[C@H]4c5ccccc5C(F)(F)[C@@H]4O)ccc3O[C@@]2(C)COC)C(=N)N1` [Example 291, (2R,3S)-3-(4,4-diethyl-2-imino-6-oxo-hexahydropyrimidin-1-yl)-N-[(1S,2R)-3,3-difluoro-2-hydroxy-indan-1-yl]-2-(methoxymethyl)-2-methyl-3H-benzofuran-5-carboxamide] has an EC50 ([2]; 72 h) of 240 nM.
For `CCC1(CC)CC(=O)N([C@@H]2c3cc(C(=O)N[C@@H]4c5ccccc5OC(C)(C)[C@H]4O)ccc3OC[C@@]2(C)OC)C(=N)N1` [Example 295, (3S,4R)-4-(4,4-diethyl-2-imino-6-oxo-hexahydropyrimidin-1-yl)-N-[(3S,4R)-3-hydroxy-2,2-dimethyl-chroman-4-yl]-3-methoxy-3-methyl-chromane-6-carboxamide], the EC50 ([2]; 72 h) was 100 nM.
`CCC1(CC)CC(=O)N([C@H]2c3cc(C(=O)N[C@@H]4c5ccccc5OC(C)(C)[C@H]4O)ccc3OC[C@]2(C)OC)C(=N)N1` [Example 296, (3R,4S)-4-(4,4-diethyl-2-imino-6-oxo-hexahydropyrimidin-1-yl)-N-[(3S,4R)-3-hydroxy-2,2-dimethyl-chroman-4-yl]-3-methoxy-3-methyl-chromane-6-carboxamide] showed an EC50 ([2]; 72 h) of 0.3 nM.
In the case of `CCC1(CC)CC(=O)N([C@H]2c3cc(C(=O)N[C@@H]4c5ccccc5OC(C)(C)[C@H]4O)ccc3OC[C@H]2COC)C(=N)N1` [Example 298, (3R,4R)-4-(4,4-diethyl-2-imino-6-oxotetrahydropyrimidin-1(2H)-yl)-N-((3S,4R)-3-hydroxy-2,2-dimethylchroman-4-yl)-3-(methoxymethyl)chromane-6-carboxamide], the EC50 ([2]; 72 h) is reported as 0.5 nM.
For `CCC1(CC)CC(=O)N([C@H]2c3cc(C(=O)N[C@@H]4c5ccccc5OC(C)(C)[C@H]4O)ccc3OC[C@@H]2COC)C(=N)N1` [Example 299, (3S,4R)-4-(4,4-diethyl-2-imino-6-oxo-hexahydropyrimidin-1-yl)-N-[(3S,4R)-3-hydroxy-2,2-dimethyl-chroman-4-yl]-3-(methoxymethyl)chromane-6-carboxamide], the EC50 ([2]; 72 h) was 0.8 nM.
In the case of `CC(C)C[C@H](NC(=O)[C@H]1O[C@@H]1C(=O)O)C(=O)NCCCCN=C(N)N` [Example E64, reference compound], the “RAP1 processing by PMIX and SUB1” value ([4]; treated parasites/merozoites, processed forms p82 and p69, unprocessed p87) is given as “processed normally by PMIX and SUB1”, the “Apical Sushi Protein (ASP) processing by PMIX” value ([4]; treated parasites, p47 processed, p87 full-length) is given as “processed into a 47 kDa polypeptide (p47)” and the SERA5 processing [5] is given as “does not affect SERA5 processing”. The “PMIX processing to 55 kDa (p55) protein” value [6] was “not inhibited”.

Source: patent US20230355622A1, “METHODS OF CHEMOVACCINATION AGAINST PLASMODIUM INFECTIONS” (Merck Sharp & Dohme LLC, priority 2020, published 2023)
